# Test results published in patent US8916711B2, “Imidazothiazole-chalcone derivatives as potential anticancer agents and process for the preparation thereof” (Council of Scientific and Industrial Research, priority 2009, dated 2014).
# pIC50: −log10 of the molar value. Read-outs that look alike come from different tables or passages of the source.
# Legend:
# Type in all cases: cell-based
# CCRF-CEM = assay: NCI in vitro cytotoxicity (SRB, 48 h), Leukemia panel; conditions: Homo sapiens, 48 h exposure
# MOLT-4 = assay: as above; conditions: Homo sapiens; MOLT-4, Leukemia; 48 h exposure
# RPMI-8226 = assay: as above; conditions: Homo sapiens; RPMI-8226, Leukemia; 48 h exposure
# A549/ATCC = assay: NCI in vitro cytotoxicity (SRB, 48 h), Non-small cell lung panel; conditions: Homo sapiens, 48 h exposure
# HOP-92 = assay: as above; conditions: Homo sapiens
# NCI-H226 = assay: as above; conditions: Homo sapiens, 48 h exposure
# NCI-H322M = assay: as above; conditions: Homo sapiens, 48 h exposure
# NCI-H522 = assay: as above; conditions: Homo sapiens, 48 h exposure
# HCT-116 = assay: NCI in vitro cytotoxicity (SRB, 48 h), Colon panel; conditions: Homo sapiens; HCT-116, Colon; 48 h exposure
# HCT-15 = assay: NCI in vitro cytotoxicity (SRB, 48 h), Colon panel; conditions: Homo sapiens; HCT-15, Colon; 48 h exposure
# HT29 = assay: NCI in vitro cytotoxicity (SRB, 48 h), Colon panel; conditions: Homo sapiens, HT-29, 48 h exposure
# KM12 = assay: NCI in vitro cytotoxicity (SRB, 48 h), Colon panel; conditions: Homo sapiens, 48 h exposure
# SF-268 = assay: NCI in vitro cytotoxicity (SRB, 48 h), CNS panel; conditions: Homo sapiens; SF-268, CNS; 48 h exposure
# SF-295 = assay: NCI in vitro cytotoxicity (SRB, 48 h), CNS panel; conditions: Homo sapiens; SF-295, CNS; 48 h exposure
# SF-539 = assay: NCI in vitro cytotoxicity (SRB, 48 h), CNS panel; conditions: Homo sapiens; SF-539, CNS; 48 h exposure
# U251 = assay: NCI in vitro cytotoxicity (SRB, 48 h), CNS panel; conditions: Homo sapiens, U-251, 48 h exposure
# IGROV1 = assay: NCI in vitro cytotoxicity (SRB, 48 h), Ovarian panel; conditions: Homo sapiens, IGROV-1; IGROV1, Ovarian; 48 h exposure
# OVCAR-4 = assay: as above; conditions: Homo sapiens; OVCAR-4, Ovarian; 48 h exposure
# CAKI-1 = assay: NCI in vitro cytotoxicity (SRB, 48 h), Renal panel; conditions: Homo sapiens; CAKI-1, Renal; 48 h exposure
# SN12C = assay: NCI in vitro cytotoxicity (SRB, 48 h), Renal panel; conditions: Homo sapiens, 48 h exposure
# UO-31 = assay: NCI in vitro cytotoxicity (SRB, 48 h), Renal panel; conditions: Homo sapiens; UO-31, Renal; 48 h exposure
# MCF7 = assay: NCI in vitro cytotoxicity (SRB, 48 h), Breast panel; conditions: Homo sapiens; MCF7, Breast; 48 h exposure
# MDA-MB-231/ATCC = assay: as above; conditions: Homo sapiens, Breast, 48 h exposure
# BT-549 = assay: as above; conditions: Homo sapiens; BT-549, Breast; 48 h exposure
# MDA-MB-468 = assay: as above; conditions: Homo sapiens; MDA-MB-468, Breast; 48 h exposure
# MALME-3M = assay: NCI in vitro cytotoxicity (SRB, 48 h), Melanoma panel; conditions: Homo sapiens, 48 h exposure
# MDAMB-435 = assay: as above; conditions: Homo sapiens, MDA-MB-435; MDAMB-435, Melanoma; 48 h exposure
# SK-MEL-28 = assay: as above; conditions: Homo sapiens; SK-MEL-28, Melanoma; 48 h exposure
# UACC-62 = assay: as above; conditions: Homo sapiens; UACC-62, Melanoma; 48 h exposure
# UACC-25 = assay: as above; conditions: Homo sapiens; UACC-25, Melanoma; 48 h exposure
# Leukemia cell lines = assay: NCI in vitro cytotoxicity, whole panel; conditions: Homo sapiens
# [1] = tested on: Ovarian cancer cell lines; assay: NCI in vitro cytotoxicity, whole panel; conditions: Homo sapiens
# Breast cancer cell lines = assay: NCI in vitro cytotoxicity, whole panel; conditions: Homo sapiens
# [2] = tested on: sixty human tumour cell lines; assay: NCI in vitro cytotoxicity, all panels
smiles,measurement,setting,value
"COc1cc(C(=O)/C=C/c2c(-c3ccc(F)cc3)nc3sc(C)cn23)cc(OC)c1OC [Compound 19e, (E)-3-(6-(4-fluorophenyl)-2-methylimidazo[2,1-b]thiazol-5-yl)-1-(3,4,5-trimethoxyphenyl)prop-2-en-1-one]",GI50,CCRF-CEM,7.19 µM
same,GI50,MOLT-4,1.62 µM
same,GI50,RPMI-8226,2.32 µM
same,GI50,A549/ATCC,9.34 µM
same,GI50,"HOP-92; HOP-92, Non-small cell lung, 48 h exposure",0.15 µM
same,GI50,"HOP-92; HOP-92, non-small cell lung",0.15 µM
same,GI50,NCI-H226,9.58 µM
same,GI50,NCI-H322M,8.65 µM
same,GI50,NCI-H522,2.96 µM
same,GI50,HCT-116,2.92 µM
same,GI50,HCT-15,3.76 µM
same,GI50,HT29,6.96 µM
same,GI50,KM12,3.63 µM
same,GI50,SF-268,15.2 µM
same,GI50,SF-295,2.33 µM
same,GI50,SF-539,6.23 µM
same,GI50,U251,4.07 µM
same,GI50,IGROV1,8.71 µM
same,GI50,OVCAR-4,2.28 µM
same,GI50,CAKI-1,1.78 µM
same,GI50,SN12C,9.01 µM
same,GI50,UO-31,2.95 µM
same,GI50,MCF7,1.81 µM
same,GI50,MDA-MB-231/ATCC,5.38 µM
same,GI50,BT-549,3.75 µM
same,GI50,MDA-MB-468,2.38 µM
same,GI50,MALME-3M,2.69 µM
same,GI50,MDAMB-435,1.75 µM
same,GI50,SK-MEL-28,7.07 µM
same,GI50,UACC-62,2.91 µM
same,GI50,UACC-25,4.75 µM
same,GI50,"Leukemia cell lines; Leukemia, average of six to eight cell lines, read-out: Log10 GI50 (converted)",2.69 µM
same,CC50,"Leukemia cell lines; Leukemia, average of six to eight cell lines, read-out: Log10 LC50 (converted)",≥ 100 µM
same,GI50,"Leukemia cell lines; exposure period of at least 48 hrs, read-out: GI50, range over leukemia cell lines",0.8 to 7.19 µM
same,GI50,"[1]; Ovarian, average of six to eight cell lines, read-out: Log10 GI50 (converted)",6.76 µM
same,CC50,"[1]; Ovarian, average of six to eight cell lines, read-out: Log10 LC50 (converted)",100 µM
same,GI50,"[1]; exposure period of at least 48 hrs, read-out: GI50, range over ovarian cell lines",≥ 2.28 µM
same,GI50,"Breast cancer cell lines; Breast, average of six to eight cell lines, read-out: Log10 GI50 (converted)",3.63 µM
same,CC50,"Breast cancer cell lines; Breast, average of six to eight cell lines, read-out: Log10 LC50 (converted)",≥ 100 µM
same,pIC50,"Breast cancer cell lines; exposure period of at least 48 hrs, read-out: IC50, range over breast cell lines",5.08 to 5.74
same,GI50,"[2]; Homo sapiens, sixty cell lines, nine panels, read-out: GI50 against sixty cell lines in nine cell panels",< 9 µM
same,Log10 TGI mean graph midpoint (MG_MID),[2]; human tumour cell lines,−4.14
same,"in vitro cytotoxicity, in words",[2]; human tumour cell lines,significant cytotoxicity
same,GI50,"[2]; human tumour cell lines, read-out: Log10 GI50 mean graph midpoint (MG_MID) (converted)",4.79 µM
same,CC50,"[2]; human tumour cell lines, read-out: Log10 LC50 mean graph midpoint (MG_MID) (converted)",95.5 µM
